In patent publication US11208387B2, “Macrocyclic broad spectrum antibiotics” (Genentech, Inc., priority 2019, dated 2021) one finds MIC data, which are given here for four molecules.

Values after ≈ are worked out from the molar mass of the structure shown. Where two headings read alike, the source gives them in different places.

For orientation: MIC means the lowest concentration that inhibits growth of the organism.

Holding throughout (test): Serum MIC, broth micro-dilution
Type in all cases: cell-based

The test system of assay [1] is Acinetobacter baumannii ATCC 17978. Particulars: Acinetobacter baumannii, ATCC17978, 50% v/v mouse serum in Mueller Hinton II cation adjusted Broth, 35° C., 22 hours. The method, boiled down: (§1)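 MIC read after 22 h at 35° C by CLSI broth micro-dilution, with medium containing 50% v/v mouse serum in cation-adjusted Mueller Hinton II broth. Ten 2-fold compound concentrations were tested, starting at 64, 4, 0.5 or 0.13 μg/mL.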

In assay [2] the test system is Escherichia coli strain ATCC 25922. Particulars: Escherichia coli, ATCC25922; 50% v/v mouse serum in Mueller Hinton II cation adjusted Broth, 35° C., 22 hours; Table 4; read-out: E. coli 25922 Serum MIC. In short, it runs like this: as §1
The test system of assay [3] is Klebsiella pneumoniae ATCC 700603. Particulars: Klebsiella pneumoniae, ATCC700603; 50% v/v mouse serum in Mueller Hinton II cation adjusted Broth, 35° C., 22 hours; Table 4; read-out: K pneumoniae 700603 Serum MIC. The method, boiled down: as §1
Assay [4] has as its system Pseudomonas aeruginosa PA01. Particulars: Pseudomonas aeruginosa, PA01; 50% v/v mouse serum in Mueller Hinton II cation adjusted Broth, 35° C., 22 hours; Table 4; read-out: P. aeruginosa 01 Serum MIC. The method, boiled down:
as §1

Where [5] appears, read: Table 4, read-out: A. baumanii 17978 Serum MIC.
Setting [6] is: Table 5, read-out: Acinetobacter baumanii 17978 Serum MIC.

Take `C[C@@H]1NC(=O)[C@@H](N(C)C(=O)[C@H](CNS(N)(=O)=O)NC(=O)c2c(N)cc(-c3ccc(C(C)(C)C)cc3O)nc2Cl)c2cc(OC[C@H](O)CN)c(O)c(c2)-c2cc(ccc2OC[C@H](O)CN)C[C@@H](C(=O)O)NC1=O` [Example 61, (8S,11S,14S)-18-hydroxy-11-methyl-14-[methyl-[(2S)-2-[[4-amino-6-(4-tert-butyl-2-hydroxy-phenyl)-2-chloro-pyridine-3-carbonyl]-amino]-3-(sulfamoyl-amino)propanoyl]-amino]-10,13-dioxo-3,17-bis[(2R)-3-amino-2-hydroxy-propoxy]-9,12-diazatricyclo-[13.3.1.12,6]icosa-1(18),2(20),3,5,15(19), 16-hexaene-8-carboxylic acid]: the minimum inhibitory concentration (MIC) came out at 16 µM (≈ 16.7 µg/mL) in assay [1] (setting [5]); 16 µM (≈ 16.7 µg/mL) in assay [1] (setting [6]); 0.38 µM (≈ 0.397 µg/mL) in assay [2]; 0.5 µM (≈ 0.522 µg/mL) in assay [3]; 3 µM (≈ 3.13 µg/mL) in assay [4].

As for `Cc1nc(-c2ccc(C(C)(C)C)cc2)cc(CN)c1C(=O)N[C@@H](CNS(N)(=O)=O)C(=O)N(C)[C@@H]1C(=O)N[C@@H](C)C(=O)N[C@H](C(=O)O)Cc2ccc(OC[C@H](O)CN)c(c2)-c2cc1cc(OC[C@H](O)CN)c2O` [Example 63, (8S,11S,14S)-3,17-bis[(2R)-3-amino-2-hydroxy-propoxy]-14-[[(2S)-2-[[4-(amino-methyl)-6-(4-tert-butylphenyl)-2-methyl-pyridine-3-carbonyl]amino]-3-(sulfamoylamino)-propanoyl]-methyl-amino]-18-hydroxy-11-methyl-10,13-dioxo-9,12-diazatri-cyclo[13.3.1.12,6]icosa-1(18),2(20),3,5,15(19), 16-hexaene-8-carboxylic acid], the minimal inhibitory concentration (MIC) in assay [1] (setting [5]) was 16 µM (≈ 16.3 µg/mL); in assay [1] (setting [6]) it was 16 µM (≈ 16.3 µg/mL); in assay [2], 1 µM (≈ 1.02 µg/mL); in assay [3], 0.5 µM (≈ 0.511 µg/mL); in assay [4], 16 µM (≈ 16.3 µg/mL).

As for `Cc1nc(-c2ccc(C(C)(C)C)cc2O)cc(CN)c1C(=O)N[C@@H](CNS(N)(=O)=O)C(=O)N(C)[C@@H]1C(=O)N[C@@H](C)C(=O)N[C@H](C(=O)O)Cc2ccc(OC[C@H](O)CN)c(c2)-c2cc1cc(OC[C@H](O)CN)c2O` [Example 65, (8S,11S,14S)-3,17-bis[(2R)-3-amino-2-hydroxy-propoxy]-14-[[(2S)-2-[[4-(aminomethyl)-6-(4-tert-butyl-2-hydroxy-phenyl)-2-methyl-pyridine-3-carbonyl]-amino]-3-(sulfamoyl-amino)propanoyl]-methyl-amino]-18-hydroxy-11-methyl-10,13-dioxo-9,12-diazatricyclo-[13.3.1.12,6]icosa-1(19),2(20),3,5,15,17-hexaene-8-carboxylic acid], the minimal inhibitory concentration (MIC) in assay [1] (setting [5]) is 32 µM (≈ 33.2 µg/mL); in assay [1] (setting [6]) it was 32 µM (≈ 33.2 µg/mL); in assay [2], 1 µM (≈ 1.04 µg/mL); in assay [3], 1 µM (≈ 1.04 µg/mL); in assay [4], 16 µM (≈ 16.6 µg/mL).

For the molecule `Cc1nc(-c2ccc(C(C)(C)C)c(F)c2O)nc(N)c1C(=O)N[C@@H](CNS(N)(=O)=O)C(=O)N(C)[C@@H]1C(=O)N[C@@H](C)C(=O)N[C@H](C(=O)O)Cc2ccc(OC[C@H](O)CN)c(c2)-c2cc1cc(OC[C@H](O)CN)c2O` [Example 67, (8S,11S,14S)-18-hydroxy-11-methyl-14-[methyl-[(2S)-2-[[4-amino-2-(4-tert-butyl-3-fluoro-2-hydroxy-phenyl)-6-methyl-pyrimidine-5-carbonyl]amino]-3-(sulfamoylamino)-propanoyl]amino]-10,13-dioxo-3,17-bis[(2R)-3-amino-2-hydroxy-propoxy]-9,12-diazatricyclo-[13.3.1.12,6]icosa-1(18),2(20),3,5,15(19), 16-hexaene-8-carboxylic acid], the minimum inhibitory concentration (MIC) in assay [1] (setting [5]) stood at 16 µM (≈ 16.7 µg/mL); in assay [1] (setting [6]), 16 µM (≈ 16.7 µg/mL); in assay [2], 0.5 µM (≈ 0.521 µg/mL); in assay [3], 1 µM (≈ 1.04 µg/mL); in assay [4] it was 4 µM (≈ 4.17 µg/mL).
